Experimental findings from patent publication US20230174538A1, “Tricyclic heterocycles” (Merck Patent GmbH, priority 2020, published 2023) are described below.

Structures are written as SMILES.

In this assay the test system is YAP-TEAD interaction. The assay can be described thus: SK-HEP-1 reporter assay (8xTEAD responsive elements driving NanoLuc luciferase). It counts as cell-based. Particulars: Homo sapiens, SK-HEP1, SK-HEP-1 reporter assay. How it is done:
To identify inhibitors of YAP-TEAD interaction, 8×TEAD responsive elements driving the NanoLuc® luciferase gene were stably integrated into SK-HEP-1 cells (ECACC #: 91091816).
For the assay, cells were treated in duplicates with the test compounds in a 10-point dose, with the top concentration starting at 30 μM (final concentration in assay). After a 24 hour incubation at 37° C., 95% rH, and 5% CO2, a luciferase substrate/lysis reagent mix (NanoGlo™, Promega) was added to the cells, allowing the quantification of cellular luciferase activity.
Cell Media: The cells were cultured in the following media: MEM, +10% FBS, +1× GlutaMAX, +1 mM Sodium-Pyruvate, +100 μM Non-essential amino acids, +0.1 mg/ml Hygromycin. The media used for the assay was: MEM (w/o Phenol Red), +10% FBS, +1× GlutaMAX, +1 mM Sodium-Pyruvate, +100 μM Non-essential amino acids, +0.5% Pen/Strep
Reagents: The reagents used are listed below:
Cell culture: The cells were examined using an inverted microscope to check for health and cell density. To dissociate adherent cells, the monolayer of cells was washed once with pre-warmed PBS. After removing the PBS, 3 ml pre-warmed Accutase® was added to a F75 flask, dispersed evenly and the flask was allowed to sit in incubator for ˜4-5 minutes.
When a single cell suspension was obtained, 7 ml of prewarmed growth media was added and resuspended with the cells. The cell suspension was transferred to a sterile 15 ml conical centrifuge tube, and spun for 5 min at 300×g, RT. The supernatant was discarded and the pellet was resuspended in 10 ml of pre-warmed growth media.
The total cell count was determined, and 20 μl of the desired cell number was added to each well of a 384 well plate using a Multidrop Combi. The plates were then incubated for 24 hours at 37° C., 95% rH, and 5% CO2.
Compound treatment: 24 hours after seeding, the cells were treated with compounds.
A 1:333 dilution of compounds, diluted in DMSO, was made to get a final concentration of 0.3% DMSO per well. To transfer the compounds to the assay plate, 120 nl was shot from Labcyte low dead volume plates to the cell plates containing 20 μl media/well with the ECHO 555 liquid handling system.
After treatment, the cells were fed with 20 μl fresh pre-warmed assay media using a Multidrop combi.
The assay plates were then incubated for another 24 h at 37° C., 95% rH, and 5% CO2.
Luciferase readout: 24 h after treatment, the plates were taken out of the incubator and were allowed to equilibrate to RT. 30 μl of NanoGlo® reagent was added to the plates in the dark. Plates were shaken for 20 min on a Teleshake (˜1500 rpm) in the dark. The luminescence was then measured using an EnVision microplate reader. The IC50 values were generated using Genedata Screener®.
Compound `Cn1cc2c3cc(C(=O)NCCCc4cc[nH]n4)ccc3n(-c3ccc(C(F)(F)F)cc3)c2n1` [B142^] showed an IC50 of 100 to 10000 nM.

In the case of `Cn1cc2c3cc(C(=O)NC4CCCN(CCF)C4)ccc3n(-c3ccc(C(F)(F)F)cc3)c2n1` (centres unmarked) [B143^], the half-maximal inhibitory concentration (IC50) was > 10000 nM.

`Cc1nc(CNC(=O)c2ccc3c(c2)c2cn(C)nc2n3-c2ccc(C(F)(F)F)cc2)n[nH]1` [B144^] showed a half-maximal inhibitory concentration (IC50) of 10 to 100 nM.

Regarding `Cc1c[nH]c(C(NC(=O)c2ccc3c(c2)c2cn(C)nc2n3-c2ccc(C(F)(F)F)cc2)C2CC2)n1` (centres unmarked) [B145^], the IC50 is > 10000 nM.

In turn, `O=C(O)c1ccc2c(c1)c1cn(Cc3ccccc3)cc1n2S(=O)(=O)c1ccccc1` [Example 1, 4-(benzenesulfonyl)-2-benzyl-2H,4H-pyrrolo[3,4-b]indole-7-carboxylic acid] yielded an IC50 of 100 to 10000 nM.

The compound `O=C(O)c1ccc2c(c1)c1cn(Cc3ccccc3)cc1n2-c1ccccc1` [Example 3, 2-Benzyl-4-phenyl-2H,4H-pyrrolo[3,4-b]indole-7-carboxylic acid] registered a half-maximal inhibitory concentration (IC50) of 1 to 10 nM.

Consider `Cn1cc2c(n1)c1cc(C(=O)O)ccc1n2-c1ccc(C(F)(F)F)cc1` [Example 4, 2-methyl-4-[4-(trifluoromethyl)phenyl]-2H,4H-pyrazolo[4,3-b]indole-7-carboxylic acid], for which the IC50 fell in the range of 100 to 10000 nM.

As to `Cn1cc2c3cc(C(=O)O)ccc3n(-c3cccc(F)c3)c2n1` [Example 7, 8-(3-fluorophenyl)-2-methyl-2H,8H-pyrazolo[3,4-b]indole-5-carboxylic acid], the IC50 fell in the range of 10 to 100 nM.

As to `Cn1cc2c3cc(C(=O)O)ccc3n(Cc3cccc(C(F)(F)F)c3)c2n1` [Example 8, 2-Methyl-8-{[3-(trifluoromethyl)phenyl]methyl}-2H,8H-pyrazolo[3,4-b]indole-5-carboxylic acid], the IC50 was in the range of 100 to 10000 nM.

In the case of `Cn1cc2c3cc(C(=O)O)ccc3n(CC3CCCCC3)c2n1` [Example 11, 8-(cyclohexylmethyl)-2-methyl-2H,8H-pyrazolo[3,4-b]indole-5-carboxylic acid], the IC50 is 100 to 10000 nM.

As for `Cn1cc2c3cc(C(=O)O)ccc3n(-c3ccc(Cl)cc3)c2n1` [Example 13, 8-(4-chlorophenyl)-2-methyl-2H,8H-pyrazolo[3,4-b]indole-5-carboxylic acid], the IC50 is 100 to 10000 nM.

Regarding `Cn1cc2c3cc(NC(=O)CCl)ccc3n(-c3ccc(C(F)(F)F)cc3)c2n1` [Example 23, 2-chloro-N-[2-methyl-8-[4-(trifluoromethyl)phenyl]pyrazolo[3,4-b]indol-5-yl]acetamide], the concentration for half-maximal inhibition (IC50) was > 10000 nM.

Turning to `Cn1cc2c(n1)c1cc(S(C)(=O)=O)ccc1n2-c1ccc(C(F)(F)F)cc1` [Example 33, 7-methanesulfonyl-2-methyl-4-[4-(trifluoromethyl)phenyl]-2H,4H-pyrazolo[4,3-b]indole], the IC50 fell in the range of 100 to 10000 nM.

For `CCC(NC(=O)c1ccc2c(c1)c1cn(C)nc1n2-c1ccc(C(F)(F)F)cc1)c1c[nH]nn1` (centres unmarked) [Example B3, 2-methyl-N-[1-(1H-1,2,3-triazol-4-yl)propyl]-8-[4-(trifluoromethyl)phenyl]-2H,8H-pyrazolo[3,4-b]indole-5-carboxamide], the IC50 lay in the range of 10 to 100 nM.

As to `CC(NC(=O)c1ccc2c(c1)c1cn(C)nc1n2-c1ccc(C(F)(F)F)cc1)c1c[nH]cn1` (centres unmarked) [Example B5, N-[1-(1H-imidazol-4-yl)ethyl]-2-methyl-8-[4-(trifluoromethyl)phenyl]-2H,8H-pyrazolo[3,4-b]indole-5-carboxamide], the half-inhibitory concentration (IC50) was in the range of 100 to 10000 nM.

`Cn1cc2c3cc(C(=O)NCc4cc5ncccc5[nH]4)ccc3n(-c3ccc(C(F)(F)F)cc3)c2n1` [Example B6, 2-methyl-N-({1H-pyrrolo[3,2-b]pyridin-2-yl}methyl)-8-[4-(trifluoromethyl)phenyl]-2H,8H-pyrazolo[3,4-b]indole-5-carboxamide]: the IC50 fell in the range of 100 to 10000 nM.

With `CCC(NC(=O)c1ccc2c(c1)c1cn(C)nc1n2-c1ccc(C(F)(F)F)cc1)c1ncc[nH]1` (centres unmarked) [Example B7, N-[1-(1H-imidazol-2-yl)propyl]-2-methyl-8-[4-(trifluoromethyl)phenyl]-2H,8H-pyrazolo[3,4-b]indole-5-carboxamide], the half-inhibitory concentration (IC50) was > 10000 nM.

`CC(NC(=O)c1ccc2c(c1)c1cn(C)nc1n2-c1ccc(C(F)(F)F)cc1)c1ccc[nH]1` (centres unmarked) [Example B8, 2-methyl-N-[1-(1H-pyrrol-2-yl)ethyl]-8-[4-(trifluoromethyl)phenyl]-2H,8H-pyrazolo[3,4-b]indole-5-carboxamide] displayed an IC50 of 100 to 10000 nM.

`Cn1cc2c3cc(C(=O)NC(CCO)c4cncs4)ccc3n(-c3ccc(C(F)(F)F)cc3)c2n1` (centres unmarked) [Example B9, N-[3-hydroxy-1-(1,3-thiazol-5-yl)propyl]-2-methyl-8-[4-(trifluoromethyl)phenyl]-2H,8H-pyrazolo[3,4-b]indole-5-carboxamide] displayed an IC50 of 10 to 100 nM.

Consider `Cn1cc2c3cc(C(=O)N4CC5(CCCC5)CC4CO)ccc3n(-c3ccc(C(F)(F)F)cc3)c2n1` (centres unmarked) [Example B10, (2-{2-methyl-8-[4-(trifluoromethyl)phenyl]-2H,8H-pyrazolo[3,4-b]indole-5-carbonyl}-2-azaspiro[4.4]nonan-3-yl)methanol], for which the IC50 was in the range of 100 to 10000 nM.

For `Cn1cc2c3cc(C(=O)NCCc4c[nH]nn4)ccc3n(-c3ccc(C(F)(F)F)cc3)c2n1` [Example B11, 2-methyl-N-[2-(1H-1,2,3-triazol-4-yl)ethyl]-8-[4-(trifluoromethyl)phenyl]-2H,8H-pyrazolo[3,4-b]indole-5-carboxamide], the IC50 lay within 10 to 100 nM.

With `Cn1cc2c3cc(C(=O)N(CCO)CC4CC=CCC4)ccc3n(-c3ccc(C(F)(F)F)cc3)c2n1` (centres unmarked) [Example B12, N-[(cyclohex-3-en-1-yl)methyl]-N-(2-hydroxyethyl)-2-methyl-8-[4-(trifluoromethyl)phenyl]-2H,8H-pyrazolo[3,4-b]indole-5-carboxamide], the half-inhibitory concentration (IC50) lay in the range of 100 to 10000 nM.

As to `Cn1cc2c3cc(C(=O)N4CCCC4c4ccc[nH]4)ccc3n(-c3ccc(C(F)(F)F)cc3)c2n1` (centres unmarked) [Example B13, 2-(1-{2-methyl-8-[4-(trifluoromethyl)-phenyl]-2H,8H-pyrazolo[3,4-b]indole-5-carbonyl}pyrrolidin-2-yl)-1H-pyrrole], the IC50 lay in the range of 100 to 10000 nM.

The compound `CC(NC(=O)c1ccc2c(c1)c1cn(C)nc1n2-c1ccc(C(F)(F)F)cc1)c1nn(C)cc1O` (centres unmarked) [Example B14, N-[1-(4-hydroxy-1-methyl-1H-pyrazol-3-yl)ethyl]-2-methyl-8-[4-(trifluoromethyl)phenyl]-2H,8H-pyrazolo[3,4-b]indole-5-carboxamide] registered an IC50 of 100 to 10000 nM.

`Cn1cc2c3cc(C(=O)NC4CC(O)C45CCOCC5)ccc3n(-c3ccc(C(F)(F)F)cc3)c2n1` (centres unmarked) [Example B16, N-{3-hydroxy-7-oxaspiro[3.5]nonan-1-yl}-2-methyl-8-[4-(trifluoromethyl)phenyl]-2H,8H-pyrazolo[3,4-b]indole-5-carboxamide]: the IC50 was 100 to 10000 nM.

`Cn1cc2c3cc(C(=O)NCc4cc(C5CCC5)n[nH]4)ccc3n(-c3ccc(C(F)(F)F)cc3)c2n1` [Example B17, N-[(3-cyclobutyl-1H-pyrazol-5-yl)methyl]-2-methyl-8-[4-(trifluoro-methyl)phenyl]-2H,8H-pyrazolo[3,4-b]indole-5-carboxamide] had an IC50 of 100 to 10000 nM.

The compound `Cn1cc2c3cc(C(=O)NCc4ccc(F)c(CO)c4)ccc3n(-c3ccc(C(F)(F)F)cc3)c2n1` [Example B19, N-{[4-fluoro-3-(hydroxymethyl)-phenyl]methyl}-2-methyl-8-[4-(trifluoromethyl)phenyl]-2H,8H-pyrazolo[3,4-b]indole-5-carboxamide] returned a half-maximal inhibitory concentration (IC50) of 1 to 10 nM.

For the compound `Cn1cc2c3cc(C(=O)NCc4ncn5c4CCCC5)ccc3n(-c3ccc(C(F)(F)F)cc3)c2n1` [Example B20, N-({5H,6H,7H,8H-imidazo[1,5-a]pyridin-1-yl}methyl)-2-methyl-8-[4-(trifluoromethyl)phenyl]-2H,8H-pyrazolo[3,4-b]indole-5-carboxamide], the IC50 was > 10000 nM.

`Cc1n[nH]c(C)c1C(C)NC(=O)c1ccc2c(c1)c1cn(C)nc1n2-c1ccc(C(F)(F)F)cc1` (centres unmarked) [Example B21, N-[1-(3,5-dimethyl-1H-pyrazol-4-yl)ethyl]-2-methyl-8-[4-(trifluoromethyl)phenyl]-2H,8H-pyrazolo[3,4-b]indole-5-carboxamide]: the IC50 was in the range of 10 to 100 nM.
